“And” between values parts separate entries of the source, which are not always exact repeats. Identical values can stand only once.
Assays:
CB1 (rCB1) = CB1 (rCB1) (Rattus norvegicus, UniProt P20272); assay: Radioligand competition binding, [3H]-CP-55,940, rat brain membranes
hCB1 = hCB1 (Homo sapiens, UniProt P21554); assay: bioSensAll ebBRET signaling profiling, hCB1; assay type: cell-based; set-up: host or cells: HEK293SL cells, transient PEI transfection; conditions: for Gi1 hCB1 response: Gi1 biosensor; for Gi1 hCB1 / GoB hCB1: single replicate values, FigS6a
Chain of hCB1 (P21554 whole entry): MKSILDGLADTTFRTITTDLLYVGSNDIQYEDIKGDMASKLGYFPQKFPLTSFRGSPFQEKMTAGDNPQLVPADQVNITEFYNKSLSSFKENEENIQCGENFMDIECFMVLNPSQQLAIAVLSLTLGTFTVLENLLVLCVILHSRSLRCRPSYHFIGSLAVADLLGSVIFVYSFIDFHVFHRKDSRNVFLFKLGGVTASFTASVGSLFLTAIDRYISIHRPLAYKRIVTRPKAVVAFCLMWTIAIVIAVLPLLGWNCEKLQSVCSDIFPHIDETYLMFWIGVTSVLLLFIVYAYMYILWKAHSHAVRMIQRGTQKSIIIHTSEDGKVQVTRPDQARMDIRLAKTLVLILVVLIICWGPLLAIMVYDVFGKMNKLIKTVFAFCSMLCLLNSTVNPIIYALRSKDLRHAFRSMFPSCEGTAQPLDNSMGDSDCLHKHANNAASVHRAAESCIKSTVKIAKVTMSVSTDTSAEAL

Chain of CB1 (rCB1) (P20272 whole entry): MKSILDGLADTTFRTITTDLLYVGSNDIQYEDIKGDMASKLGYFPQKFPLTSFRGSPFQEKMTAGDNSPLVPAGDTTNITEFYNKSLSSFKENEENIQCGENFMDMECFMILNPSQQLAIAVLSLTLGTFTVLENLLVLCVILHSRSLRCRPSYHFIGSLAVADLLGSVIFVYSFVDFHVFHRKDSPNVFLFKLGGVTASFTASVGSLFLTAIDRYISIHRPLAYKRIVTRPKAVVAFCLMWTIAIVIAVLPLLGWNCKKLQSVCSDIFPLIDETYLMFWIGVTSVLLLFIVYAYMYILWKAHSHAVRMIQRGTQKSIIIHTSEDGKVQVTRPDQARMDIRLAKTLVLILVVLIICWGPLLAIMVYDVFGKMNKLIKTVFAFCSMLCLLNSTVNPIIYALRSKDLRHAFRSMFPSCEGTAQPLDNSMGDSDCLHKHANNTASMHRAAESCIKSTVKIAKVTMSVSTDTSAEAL

## Cc1cc(C(=O)N(C)C(c2ccccc2)c2ccco2)nn1-c1cccc(C(F)(F)F)c1 (centres unmarked) [‘1082]
CB1 (rCB1); rCB1
  pKi [95% CI]: 6.1 [5.8 – 6.3]
CB1 (rCB1); read-out: Ki [95% CI], rCB1, [3H]-CP-55,940
  Ki: 850 nM
hCB1; Log [Compound] (M) -4.22186
  Gi1 hCB1 response: -35.0608
  Gi1 hCB1: -9.361
  GoB hCB1: -31.4993
hCB1; Log [Compound] (M) -4.63927
  Gi1 hCB1 response: -33.606
  Gi1 hCB1: -10.6872
  GoB hCB1: -34.2867
hCB1; Log [Compound] (M) -5.05788
  Gi1 hCB1 response: 18.2518
  Gi1 hCB1: -11.9051
  GoB hCB1: -28.1184
hCB1; Log [Compound] (M) -5.47381
  Gi1 hCB1 response: -3.66
  Gi1 hCB1: -11.4426
  GoB hCB1: -23.1191
hCB1; Log [Compound] (M) -5.89285
  Gi1 hCB1 response: 5.159
  Gi1 hCB1: -8.945
  GoB hCB1: -20.2417
hCB1; Log [Compound] (M) -6.31878
  Gi1 hCB1 response: -15.9695
  Gi1 hCB1: -6.247
  GoB hCB1: -13.1203
hCB1; Log [Compound] (M) -6.72585
  Gi1 hCB1 response: 12.7459
  Gi1 hCB1: -1.113
  GoB hCB1: -7.186
hCB1; Log [Compound] (M) -7.14267
  Gi1 hCB1 response: 12.0521
  Gi1 hCB1: -0.5276
  GoB hCB1: -1.323
hCB1; Log [Compound] (M) -7.55284
  Gi1 hCB1 response: 14.8945
  Gi1 hCB1: 1.23
  GoB hCB1: 0.2953
hCB1; Log [Compound] (M) -8
  Gi1 hCB1 response: -25.6382
  Gi1 hCB1: 1.677
  GoB hCB1: -4.362
hCB1; Log [Compound] (M) -8.22186
  Gi1 hCB1 response: 0.1228
  Gi1 hCB1: 1.6461
  GoB hCB1: -2.654
hCB1; Log [Compound] (M) -8.39794
  Gi1 hCB1 response: -3.727
  Gi1 hCB1: 0.5515
  GoB hCB1: -2.906
hCB1; Log [Compound] (M) -8.68787
  Gi1 hCB1 response: -1.824
  Gi1 hCB1: 1.245
  GoB hCB1: -4.668
hCB1; Log [Compound] (M) -9.15521
  Gi1 hCB1 response: 3.279
  Gi1 hCB1: 1.045
  GoB hCB1: -5.747
hCB1; Log [Compound] (M) -9.61989
  Gi1 hCB1 response: -3.167
  Gi1 hCB1: -0.04972
  GoB hCB1: -2.816
hCB1; Log [Compound] (M) -10.0969
  Gi1 hCB1 response: -2.16
  Gi1 hCB1: 2.864
  GoB hCB1: -1.485
hCB1; Log [Compound] (M) -10.5529
  Gi1 hCB1 response: 5.92
  Gi1 hCB1: 1.384
  GoB hCB1: -2.978
hCB1; Log [Compound] (M) -11.0177
  Gi1 hCB1 response: -6.256
  Gi1 hCB1: -0.3581
  GoB hCB1: 1.41
hCB1; Log [Compound] (M) -11.4949
  Gi1 hCB1 response: -0.9291
  Gi1 hCB1: 1.415
  GoB hCB1: -0.7478
hCB1; Log [Compound] (M) -11.9208
  Gi1 hCB1 response: -13.4627
  Gi1 hCB1: 2.802
  GoB hCB1: 0.3312
hCB1; Log [Compound] (M) -12.3979
  Gi1 hCB1 response: -16.5961
  Gi1 hCB1: 0.1044
  GoB hCB1: -0.9456
hCB1; Log [Compound] (M) -12.8861
  Gi1 hCB1 response: 7.553
  Gi1 hCB1: -0.6818
  GoB hCB1: 1.626
hCB1; Log [Compound] (M) -13, individual replicate values
  Gi1 hCB1 response: -19.5729 and -62.4781
hCB1; Log [Compound] (M) -13
  Gi1 hCB1: 2.001 and 0.07361
  GoB hCB1: 1.176 and -0.1363

— publication PMC11882969 (Nature Communications, 2025)
